Molecular target: T1, human P2Y14 receptor (Homo sapiens, UniProt Q15391)
T1 sequence (Q15391 1-338): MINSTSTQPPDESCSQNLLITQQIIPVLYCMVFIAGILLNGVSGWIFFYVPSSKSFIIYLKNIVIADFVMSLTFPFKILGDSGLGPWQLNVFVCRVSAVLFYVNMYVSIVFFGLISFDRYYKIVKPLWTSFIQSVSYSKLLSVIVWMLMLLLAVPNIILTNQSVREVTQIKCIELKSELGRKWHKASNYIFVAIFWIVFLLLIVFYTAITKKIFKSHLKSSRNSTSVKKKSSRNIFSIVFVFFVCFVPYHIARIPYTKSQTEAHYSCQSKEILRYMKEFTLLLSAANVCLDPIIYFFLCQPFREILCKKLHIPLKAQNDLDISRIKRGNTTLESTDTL
Experiment: Inhibition of forskolin-stimulated cyclic AMP accumulation in P2Y14-HEK293 cells
Type: cell-based
Conditions: for relative potency at the P2Y14 receptor: comparator named in the value; for fold more potent than native agonist UDPG 1: potency ratio vs compound 1 at hP2Y14 receptor; for fold more potent than monomer 3a: potency ratio vs ethylenediamine analogue 3a at hP2Y14 receptor

Compound	relative potency at the P2Y14 receptor	other results
UDPGA-ethylenediamine [3a]	considerably less potent	–
G3-(UDPGA)20.1-(Biotin)4.9 [compound 13]	essentially as potent as 9	–
O=C(O)[C@H]1O[C@H](OP(=O)(O)OP(=O)(O)OC[C@H]2O[C@@H](n3ccc(=O)[nH]c3=O)[C@H](O)[C@@H]2O)[C@H](O)[C@@H](O)[C@@H]1O [compound 2, uridine-5′-diphosphoglucuronic acid, reference compound]	approximately equipotent to 1	–
G6-(UDPGA)147 [compound 12]	significantly more potent than 9	–
G3-(UDPGA)20.1-(DTPA)4.5 [compound 15]	essentially as potent as 9	–
G3-(UDPGA)20.1 [compound 9]	–	fold more potent than native agonist UDPG 1: approximately 100 fold
G5.5-(UDPGA-ethylenediamine)29.9 [compound 11]	–	fold more potent than monomer 3a: more than 800 fold
G3-(UDPGA)20.1-(AlexaFluor488)2.3 [compound 14]	–	fold more potent than native agonist UDPG 1: 7 fold; fold less potent than conjugate 9 (potency ratio vs compound 9 at hP2Y14 receptor): 17 fold
G2.5-(UDPGA-ethylenediamine)17.3 [compound 10]	–	fold more potent than monomer 3a: more than 800 fold
G3-(UDPGA)4.3 [compound 8]	considerably less potent than 9, but similar in potency to 1	–

From PMC3106419 (Bioconjugate chemistry, 2009)
